Source: patent US20070049564A1 (Wyeth, priority 2005, published 2007)
Values after ≈ are worked out from the molar mass of the structure shown. Where two headings read alike, the source gives them in different places.

How the values were obtained:
S. aureus GC 4536 = assay: MIC, broth microdilution; details: Staphylococcus aureus
S. pneumoniae* GC 4465 = assay: MIC, broth microdilution; details: Streptococcus pneumoniae
E. coli GC 2234 = assay: MIC, broth microdilution; details: Escherichia coli
S. pneumoniae+ GC 4465 = assay: MIC, broth microdilution; details: Streptococcus pneumoniae
E. coli GC 2272 = assay: MIC, broth microdilution; details: Escherichia coli
S. aureus GC 2216 = assay: MIC, broth microdilution; details: Staphylococcus aureus
E. coli GC 2231 = assay: MIC, broth microdilution; details: Escherichia coli
Staph. aureus Smith = assay: In vivo activity (oral, iv; ED50) against Staph. aureus Smith in mice
Procedure: Representative examples of compounds of Formula I were tested for the oral efficacy using S. aureus Smith in mice.

E. faecalis GC 2242 = assay: MIC, broth microdilution; details: Enterococcus faecalis
S. aureus GC 1131 = assay: MIC, broth microdilution; details: Staphylococcus aureus
E. coli GC 6465 = assay: MIC, broth microdilution; details: Escherichia coli
E. faecalis GC 2267 = assay: MIC, broth microdilution; details: Enterococcus faecalis
E. coli GC 4560 = assay: MIC, broth microdilution; details: Escherichia coli
Procedure: Antimicrobial susceptibility testing. The in vitro activities of the antibiotics are determined by the broth microdilution method as recommended by the National Committee for Clinical Laboratory Standards (NCCLS) (1). Mueller-Hinton II broth (MHBII)(BBL Cockeysville, Md.) is the medium employed in the testing procedures. Microtiter plates containing serial dilutions of each antimicrobial agent are inoculated with each organism to yield the appropriate density (10^5 CFU/ml) in a 100 μl final volume. The plates are incubated for 18-22 hours at 35° C. in ambient air.
Representative compounds were first incubated in mouse serum for an hour prior to the in vitro testing against a panel of selected gram-positive and gram-negative bacteria strains. All compounds were also pre-incubated in water for an hour prior to testing as control. Representative compounds of Formula I were incubated in human serum prior to MIC determination.

E. coli GC 2203 = assay: MIC, broth microdilution; details: Escherichia coli
S. aureus GC 6466 = assay: MIC, broth microdilution; details: Staphylococcus aureus
E. coli GC 4559 = assay: MIC, broth microdilution; details: Escherichia coli
P. aeruginosa GC 2214 = assay: MIC, broth microdilution; details: Pseudomonas aeruginosa
S. epidermidis GC 4935 = assay: MIC, broth microdilution; details: Staphylococcus epidermidis
S. aureus GC 6467 = assay: MIC, broth microdilution; details: Staphylococcus aureus
E. coli GC 2232 = assay: MIC, broth microdilution; details: Escherichia coli
[1] = read-out: MINIMAL INHIBITORY CONCENTRATION MIC, pre-incubated in Human Serum
[2] = read-out: MINIMAL INHIBITORY CONCENTRATION MIC, pre-incubated in Mouse Serum
[3] = read-out: MINIMAL INHIBITORY CONCENTRATION MIC, pre-incubated in Water

In the case of `CC(C)C(=O)OCOC(=O)N(CC(=O)Nc1cc(N(C)C)c2c(c1O)C(=O)C1=C(O)[C@]3(O)C(=O)C(C(N)=O)=C(O)[C@@H](N(C)C)[C@@H]3C[C@@H]1C2)C(C)(C)C` [Example 45, ({[(2-{[(5aR,6aS,7S,10aS)-9-(aminocarbonyl)-4,7-bis(dimethylamino)-1,8,10a,11-tetrahydroxy-10,12-dioxo-5,5a,6,6a,7,10,10a,12-octahydrotetracen-2-yl]amino}-2-oxoethyl)(tert-butyl)amino]carbonyl}oxy)methyl 2-methylpropanoate], the MIC (S. aureus GC 4536; GC4536, read-out: MINIMAL INHIBITORY CONCENTRATION MIC, pre-incubated in Human Serum) was 0.5 µg/mL (≈ 0.685 µM), the MIC (S. aureus GC 4536; GC4536, read-out: MINIMAL INHIBITORY CONCENTRATION MIC, pre-incubated in Mouse Serum) was 0.5 µg/mL (≈ 0.685 µM) and the MIC (S. aureus GC 4536; GC4536, read-out: MINIMAL INHIBITORY CONCENTRATION MIC, pre-incubated in Water) was 1 µg/mL (≈ 1.37 µM). It also gave an MIC (S. pneumoniae* GC 4465; [1]) of 0.25 µg/mL (≈ 0.343 µM), an MIC (S. pneumoniae* GC 4465; [2]) of 0.25 µg/mL (≈ 0.343 µM) and an MIC (S. pneumoniae* GC 4465; [3]) of 0.5 µg/mL (≈ 0.685 µM). For the same molecule, the MIC (E. coli GC 2234; GC2234, read-out: MINIMAL INHIBITORY CONCENTRATION MIC, pre-incubated in Human Serum) was 4 µg/mL (≈ 5.48 µM), the MIC (E. coli GC 2234; GC2234, read-out: MINIMAL INHIBITORY CONCENTRATION MIC, pre-incubated in Mouse Serum) was 0.5 µg/mL (≈ 0.685 µM) and the MIC (E. coli GC 2234; GC2234, read-out: MINIMAL INHIBITORY CONCENTRATION MIC, pre-incubated in Water) was 16 µg/mL (≈ 21.9 µM). For the same molecule, the MIC (S. pneumoniae+ GC 4465; [1]) was 2 µg/mL (≈ 2.74 µM), the MIC (S. pneumoniae+ GC 4465; [2]) was 2 µg/mL (≈ 2.74 µM) and the MIC (S. pneumoniae+ GC 4465; [3]) was 4 µg/mL (≈ 5.48 µM). For the same molecule, the MIC (E. coli GC 2272; GC2272, read-out: MINIMAL INHIBITORY CONCENTRATION MIC, pre-incubated in Human Serum) was 8 µg/mL (≈ 11 µM), the MIC (E. coli GC 2272; GC2272, read-out: MINIMAL INHIBITORY CONCENTRATION MIC, pre-incubated in Mouse Serum) was 1 µg/mL (≈ 1.37 µM) and the MIC (E. coli GC 2272; GC2272, read-out: MINIMAL INHIBITORY CONCENTRATION MIC, pre-incubated in Water) was 16 µg/mL (≈ 21.9 µM). It also gave an MIC (S. aureus GC 2216; GC2216, read-out: MINIMAL INHIBITORY CONCENTRATION MIC, pre-incubated in Human Serum) of 0.5 µg/mL (≈ 0.685 µM), an MIC (S. aureus GC 2216; GC2216, read-out: MINIMAL INHIBITORY CONCENTRATION MIC, pre-incubated in Mouse Serum) of 1 µg/mL (≈ 1.37 µM) and an MIC (S. aureus GC 2216; GC2216, read-out: MINIMAL INHIBITORY CONCENTRATION MIC, pre-incubated in Water) of 1 µg/mL (≈ 1.37 µM). It also gave an MIC (E. coli GC 2231; GC2231, read-out: MINIMAL INHIBITORY CONCENTRATION MIC, pre-incubated in Human Serum) of 4 µg/mL (≈ 5.48 µM), an MIC (E. coli GC 2231; GC2231, read-out: MINIMAL INHIBITORY CONCENTRATION MIC, pre-incubated in Mouse Serum) of 1 µg/mL (≈ 1.37 µM) and an MIC (E. coli GC 2231; GC2231, read-out: MINIMAL INHIBITORY CONCENTRATION MIC, pre-incubated in Water) of 32 µg/mL (≈ 43.8 µM). For the same molecule, the ED50 (Staph. aureus Smith; Staphylococcus aureus, in Mus musculus, iv, read-out: ED50 SIV (Staph aureus Smith)) was 0.66 mg/kg, the ED50 (Staph. aureus Smith; Staphylococcus aureus, in Mus musculus, po, read-out: ED50 SOD (Staph aureus Smith)) was 5.9 mg/kg and the ED50 (Staph. aureus Smith; Staphylococcus aureus, in Mus musculus, po, read-out: ED50 Staph Smith SOD) was 5.9 mg/kg. For the same molecule, the ED50 (Staph. aureus Smith; iv, read-out: ED50 Staph Smith SIV) was 0.66 mg/kg, the MIC (E. faecalis GC 2242; GC2242, read-out: MINIMAL INHIBITORY CONCENTRATION MIC, pre-incubated in Human Serum) was 1 µg/mL (≈ 1.37 µM) and the MIC (E. faecalis GC 2242; GC2242, read-out: MINIMAL INHIBITORY CONCENTRATION MIC, pre-incubated in Mouse Serum) was 1 µg/mL (≈ 1.37 µM). It also gave an MIC (E. faecalis GC 2242; GC2242, read-out: MINIMAL INHIBITORY CONCENTRATION MIC, pre-incubated in Water) of 2 µg/mL (≈ 2.74 µM), an MIC (S. aureus GC 1131; GC1131, read-out: MINIMAL INHIBITORY CONCENTRATION MIC, pre-incubated in Human Serum) of 0.5 µg/mL (≈ 0.685 µM) and an MIC (S. aureus GC 1131; GC1131, read-out: MINIMAL INHIBITORY CONCENTRATION MIC, pre-incubated in Mouse Serum) of 0.5 µg/mL (≈ 0.685 µM). It also gave an MIC (S. aureus GC 1131; GC1131, read-out: MINIMAL INHIBITORY CONCENTRATION MIC, pre-incubated in Water) of 1 µg/mL (≈ 1.37 µM), an MIC (E. coli GC 6465; GC6465, read-out: MINIMAL INHIBITORY CONCENTRATION MIC, pre-incubated in Human Serum) of 16 µg/mL (≈ 21.9 µM) and an MIC (E. coli GC 6465; GC6465, read-out: MINIMAL INHIBITORY CONCENTRATION MIC, pre-incubated in Mouse Serum) of 2 µg/mL (≈ 2.74 µM). It also gave an MIC (E. coli GC 6465; GC6465, read-out: MINIMAL INHIBITORY CONCENTRATION MIC, pre-incubated in Water) of over 64 µg/mL, an MIC (E. faecalis GC 2267; GC2267, read-out: MINIMAL INHIBITORY CONCENTRATION MIC, pre-incubated in Human Serum) of 1 µg/mL (≈ 1.37 µM) and an MIC (E. faecalis GC 2267; GC2267, read-out: MINIMAL INHIBITORY CONCENTRATION MIC, pre-incubated in Mouse Serum) of 0.5 µg/mL (≈ 0.685 µM). The MIC (E. faecalis GC 2267; GC2267, read-out: MINIMAL INHIBITORY CONCENTRATION MIC, pre-incubated in Water) was 2 µg/mL (≈ 2.74 µM), the MIC (E. coli GC 4560; GC4560, read-out: MINIMAL INHIBITORY CONCENTRATION MIC, pre-incubated in Human Serum) was 0.5 µg/mL (≈ 0.685 µM) and the MIC (E. coli GC 4560; GC4560, read-out: MINIMAL INHIBITORY CONCENTRATION MIC, pre-incubated in Mouse Serum) was 0.25 µg/mL (≈ 0.343 µM). The MIC (E. coli GC 4560; GC4560, read-out: MINIMAL INHIBITORY CONCENTRATION MIC, pre-incubated in Water) was 2 µg/mL (≈ 2.74 µM), the MIC (E. coli GC 2203; GC2203, read-out: MINIMAL INHIBITORY CONCENTRATION MIC, pre-incubated in Human Serum) was 4 µg/mL (≈ 5.48 µM) and the MIC (E. coli GC 2203; GC2203, read-out: MINIMAL INHIBITORY CONCENTRATION MIC, pre-incubated in Mouse Serum) was 0.5 µg/mL (≈ 0.685 µM). For the same molecule, the MIC (E. coli GC 2203; GC2203, read-out: MINIMAL INHIBITORY CONCENTRATION MIC, pre-incubated in Water) was 32 µg/mL (≈ 43.8 µM), the MIC (S. aureus GC 6466; GC6466, read-out: MINIMAL INHIBITORY CONCENTRATION MIC, pre-incubated in Human Serum) was 0.25 µg/mL (≈ 0.343 µM) and the MIC (S. aureus GC 6466; GC6466, read-out: MINIMAL INHIBITORY CONCENTRATION MIC, pre-incubated in Mouse Serum) was 0.25 µg/mL (≈ 0.343 µM). The MIC (S. aureus GC 6466; GC6466, read-out: MINIMAL INHIBITORY CONCENTRATION MIC, pre-incubated in Water) was 0.5 µg/mL (≈ 0.685 µM), the MIC (E. coli GC 4559; GC4559, read-out: MINIMAL INHIBITORY CONCENTRATION MIC, pre-incubated in Human Serum) was 8 µg/mL (≈ 11 µM) and the MIC (E. coli GC 4559; GC4559, read-out: MINIMAL INHIBITORY CONCENTRATION MIC, pre-incubated in Mouse Serum) was 1 µg/mL (≈ 1.37 µM). For the same molecule, the MIC (E. coli GC 4559; GC4559, read-out: MINIMAL INHIBITORY CONCENTRATION MIC, pre-incubated in Water) was 64 µg/mL (≈ 87.7 µM), the MIC (P. aeruginosa GC 2214; GC2214, read-out: MINIMAL INHIBITORY CONCENTRATION MIC, pre-incubated in Human Serum) was over 64 µg/mL and the MIC (P. aeruginosa GC 2214; GC2214, read-out: MINIMAL INHIBITORY CONCENTRATION MIC, pre-incubated in Mouse Serum) was 16 µg/mL (≈ 21.9 µM). For the same molecule, the MIC (P. aeruginosa GC 2214; GC2214, read-out: MINIMAL INHIBITORY CONCENTRATION MIC, pre-incubated in Water) was over 64 µg/mL, the MIC (S. epidermidis GC 4935; GC4935, read-out: MINIMAL INHIBITORY CONCENTRATION MIC, pre-incubated in Human Serum) was 1 µg/mL (≈ 1.37 µM) and the MIC (S. epidermidis GC 4935; GC4935, read-out: MINIMAL INHIBITORY CONCENTRATION MIC, pre-incubated in Mouse Serum) was 1 µg/mL (≈ 1.37 µM). It also gave an MIC (S. epidermidis GC 4935; GC4935, read-out: MINIMAL INHIBITORY CONCENTRATION MIC, pre-incubated in Water) of 2 µg/mL (≈ 2.74 µM), an MIC (S. aureus GC 6467; GC6467, read-out: MINIMAL INHIBITORY CONCENTRATION MIC, pre-incubated in Human Serum) of 1 µg/mL (≈ 1.37 µM) and an MIC (S. aureus GC 6467; GC6467, read-out: MINIMAL INHIBITORY CONCENTRATION MIC, pre-incubated in Mouse Serum) of 1 µg/mL (≈ 1.37 µM). It also gave an MIC (S. aureus GC 6467; GC6467, read-out: MINIMAL INHIBITORY CONCENTRATION MIC, pre-incubated in Water) of 2 µg/mL (≈ 2.74 µM), an MIC (E. coli GC 2232; GC2232, read-out: MINIMAL INHIBITORY CONCENTRATION MIC, pre-incubated in Human Serum) of 4 µg/mL (≈ 5.48 µM) and an MIC (E. coli GC 2232; GC2232, read-out: MINIMAL INHIBITORY CONCENTRATION MIC, pre-incubated in Mouse Serum) of 1 µg/mL (≈ 1.37 µM). For the same molecule, the MIC (E. coli GC 2232; GC2232, read-out: MINIMAL INHIBITORY CONCENTRATION MIC, pre-incubated in Water) was 16 µg/mL (≈ 21.9 µM).
